Reference: patent US20080182894A1, “METHOD OF PROVIDING PREPARATION FOR TOPICAL APPLICATION AND SUPPLEMENT MEETING CLIENT'S NEEDS” (AJINOMOTO CO., INC., priority 2005, published 2008)
“Also recorded” adds a separate entry of the source. Blank lines part the entries; values can stand above or below the compound they belong to.

Tests used:
[1] = system: hairless mouse (HR-1, female); assay: Vasodilating (blood circulation improving) effect, red spot on auricles, visual evaluation; format: in vivo; details: for blood circulation promoting action, intensity and sustainability (conclusion): auricle red spot test, 1 wt % and 5 wt %
Description: The vasodilating effects (blood circulation improving effect) of capsiate and capsaicin were compared using auricles of a hairless mouse. A sample was applied to the right ear of a hairless mouse (HR-1, female) and a control was applied to the left ear thereof, and the development of a red spot was visually evaluated. (1) Capsiate (1 wt % or 5 wt % dissolved in liquid paraffin) (2) Capsaicin (1 wt % or 5 wt % dispersed in liquid paraffin Liquid paraffin

[2] = Dissolution of sample in liquid paraffin; format: physicochemical; details: 1 wt % and 5 wt %; evaluated in a dispersion state
[3] = system: hairless mouse (HR-1, female); assay: Increase in topical concentration of systemically administered trypan blue dye by topical capsiate; format: in vivo
Experimental: A hairless mouse (HR-1, female) was intraperitoneally injected with a trypan blue solution (0.4%, 300 μl). After injection, 100 μl of 5% capsiate (dissolved in an ethanol solution) was applied uniformly using a pipet chip to the right side of the back. As a control, 100 μl of ethanol alone was uniformly applied to the left side of the back by a similar method.

hairless mouse [4] = assay: Inhibition of UVB-induced pigmentation: oral tocopherol acetate plus transdermal dihydrocapsiate; format: in vivo
Experimental: The synergistic effect of tocopherol acetate and dihydrocapsiate was confirmed using a pigmentation induction mouse based on the inhibition of pigmentation induced by ultraviolet beam (UVB).
(1) Before the start of ultraviolet beam (UVB) irradiation, tocopherol acetate (200 μl) as administered orally once a day for 3 days to a hairless mouse (12-week-old, female) using a gavage needle.
(2) After the 3-day oral administration in (1), the hairless mouse was irradiated with UVB (80-90 mJ/cm^2).
(3) Thirty minutes after the irradiation in (2), tocopherol acetate (200 μl) was administered orally to the hairless mouse using a gavage needle. Five minutes after the oral administration, 28 μl of 5 wt % dihydrocapsiate dissolved in 50 wt % ethyl alcohol was applied to the hairless mouse on the left side of the back.
Treatments (2) and (3) were performed 3 times a week (Monday, Wednesday and Friday) and treatment (3) alone was performed twice a week (Tuesday and Thursday). The skin on the back of the mouse after about 3 weeks from the start of the UV irradiation was visually evaluated.

hairless mouse [5] = assay: Inhibition of UVB-induced pigmentation: oral cystine plus transdermal dihydrocapsiate; format: in vivo; details: 5% dihydrocapsiate (50% aqueous ethanol) applied plus oral cystine 50 mg in 150 μl 0.5% CMC; about 3 and about 4 weeks; vs 50% aqueous ethanol application group
Experimental: An experiment similar to that in Example 2 was performed using cystine as an oral agent. In particular, 50 mg of cystine was dissolved in 150 μl of a 0.5% aqueous CMC (carboxymethylcellulose) solution and used as an oral administration sample, and 5% dihydrocapsiate (50% aqueous ethanol solution) was used as a dermal application sample. Ultraviolet beam (UVB) was utilized as an irradiation source without preliminary administration, and the synergistic effect afforded by the oral administration agent and the blood circulation promoter on the blackness suppressive effect on the pigmentation of the back of a mouse was confirmed according to the experiment schedule similar to that in Example 2.
Suppression of pigmentation induction in the dihydrocapsiate application group was visually evaluated.
Visual evaluation criteria • 0: No pigmentation • 1: Spots of pale pigmentation found in a part • 2: Spots of pale pigmentation found on the entire back • 3: Spots of pigmentation found on the entire back (partly deep pigmentation was found) • 4: Spots of deep pigmentation found on the entire back • 5: Deep pigmentation found on the entire back

[6] = 1 wt % in liquid paraffin, right ear, control liquid paraffin on left ear
[7] = 5 wt % in liquid paraffin, from 30 min onward after application

dissolution in liquid paraffin [2]: did not dissolve completely
Structure (SMILES): COc1cc(CNC(=O)CCCC/C=C/C(C)C)ccc1O [capsaicin, reference compound]
development of a red spot on auricle, visual evaluation [1, 6]: presence of a red spot
development of a red spot on auricle, visual evaluation [1, 7]: clear red spot
blood circulation promoting action, intensity and sustainability (conclusion) [1]: strong blood circulation promoting action and long sustainability
time over which red spot maintained the initial state ([1]; capsaicin, even at 1 wt %, auricle): > 2 h

Structure (SMILES): COc1cc(COC(=O)CCCC/C=C/C(C)C)ccc1O [capsiate]
pigmentation of blue dye in the vicinity of the auricle ([3]; 5% capsiate in ethanol applied to auricle, trypan blue i.p., 30-60 minutes after application): pigmentation of a blue dye was observed
skin pigmentation (infiltration) of blue dye at application site ([3]; 100 μl of 5% capsiate in ethanol on back, trypan blue i.p., 30 minutes after application): clear skin pigmentation (infiltration) of the blue dye was observed
skin pigmentation of blue dye derived from trypan blue at application site ([3]; 100 μl of 5% capsiate in ethanol on right side of back vs ethanol alone on left, trypan blue 0.4% 300 μl i.p., 15-20 minutes after application): confirmed only on the capsiate application side
development of a red spot on auricle, visual evaluation [1, 6]: no development of a red spot
development of a red spot on auricle, visual evaluation [1, 7]: clear red spot
blood circulation promoting action, intensity and sustainability (conclusion) [1]: mild sustainability and intensity
time until developed red spot completely disappeared ([1]; capsiate in liquid paraffin, auricle): about 2 hr

Structure (SMILES): COc1cc(COC(=O)CCCCCCC(C)C)ccc1O [dihydrocapsiate]
UVB-induced pigmentation of back skin, visual evaluation, combined use (hairless mouse [4]; 28 μl of 5 wt % dihydrocapsiate on left side of back plus oral tocopherol acetate 200 μl, UVB 80-90 mJ/cm^2, about 3 weeks, vs non-application right side): less pigmentation; also recorded: can suppress induction of pigmentation by UVB
UVB-induced pigmentation of back skin, visual evaluation, dihydrocapsiate alone (hairless mouse [4]; dihydrocapsiate applied alone, no oral tocopherol acetate, UVB irradiation): UVB irradiation induced pigmentation in the application site; also recorded: failed to suppress induction of pigmentation
pigmentation suppressive effect after treatment is ceased (hairless mouse [4]; tocopherol acetate administration and dihydrocapsiate application ceased, UVB irradiation continued, dihydrocapsiate application site): disappears and induction of pigmentation begins
UVB-induced pigmentation induction, visual evaluation (score 0-5, FIG. 9) (hairless mouse [5]): clearly suppressed

Structure (SMILES): CC(=O)Oc1c(C)c(C)c2c(c1C)CCC(C)(CCC[C@H](C)CCC[C@H](C)CCCC(C)C)O2 (some centres unmarked) [tocopherol acetate, reference compound]
UVB-induced pigmentation of back skin, visual evaluation, tocopherol only control (hairless mouse [4]; oral tocopherol acetate 200 μl, solvent (50 wt % ethyl alcohol) applied instead of dihydrocapsiate, right vs left side of back): a clear difference was not observed; also recorded: failed to suppress induction of pigmentation
